Experimental findings from US20250109141A1, “BRD4 PROTEIN DEGRADER COMPOUND, AND PREPARATION METHOD AND USE THEREOF” (Miracure Biotechnology Limited, priority 2023, published 2025) are described below.

SMILES strings stand for the structures. Like-named read-outs stand apart in the source and are kept apart here.

A word on the IC50: it is the concentration needed to halve the response being measured.

The subject of one assay is 22RV1. In words: Cell proliferation assay (CellTiterGlo, 72 h), 22RV1. It counts as cell-based. To be noted: Homo sapiens, read-out: 22Rv1 ATP average IC50. Here is the method: All incubations were performed at 37° C. in a humidified carbon dioxide incubator.
(§1) The cells were seeded in a 96-well plate (white wall/transparent bottom) at 5000 cells/well and cultured overnight.
(§2) On day 2, A stock solution of the compound at a concentration of 10 mM was subjected to an 8-fold serial dilution to obtain 8 concentration points. 2 μL of the compound solution at each concentration point was added to 98 μL of fresh medium, and the mixture was mixed homogeneously. Then, 5 μL of the compound solution diluted in the medium at each concentration point was added to 100 μL of overnight medium containing the cells, and 2 replicates were set for each concentration. The mixture was cultured for 72 h.
(§3) After 72 h of compound treatment, the plate was equilibrated to room temperature, 100 μL of CellTiterGlo (Promega) was added. The mixture was mixed homogeneously for 2 min, left to stand at room temperature for 10 min, and then read for luminescence values on a SpectraMax M5 microplate reader to evaluate cell viability. The positive control was 1% Tween-20 and the negative control was 0.1% DMSO. IC50 was generated by 4-parameter non-linear regression fitting in GraphPad Prism.
A general note: Cellular ATP, detected with luciferase, serves as a proxy for viable cell number.

Assay [1] deals with T1, BRD4 (Homo sapiens, UniProt O60885). In words: BRD4 degradation assay (Western-blot / Simple Western) in 22RV1. Conditions: 22RV1 cells, target content as percentage of control (DMSO = 100%).
In a further assay the test system is LNCaP. Kind of assay: Cell proliferation assay (CellTiterGlo, 72 h), LNCaP. It counts as cell-based. To be noted: Homo sapiens, LNCap cells, 72 h compound treatment, read-out: LNCap ATP average IC50. The protocol:
The cell line used was 22RV1 or LNCaP, and the medium was RPMI-1640 containing 10% FBS and antibiotics. All incubations were performed at 37° C. in a humidified carbon dioxide incubator.
On day 1, cells were digested with 0.25% trypsin (containing EDTA) and collected by centrifugation.
as §1, §2, §3

In assay [2] the target is T1, BRD4. In words: BRD4 degradation assay (Western-blot / Simple Western) in LNCap. Type of assay: cell-based. To be noted: LNCap cells, target content as percentage of control (DMSO = 100%). Here is the method: The mixture was centrifuged for 5 min. […] The PVDF membrane was cut and labeled. […] Images were acquired and analyzed.
[3] abbreviates: 22Rv1 cells, 72 h compound treatment, CellTiterGlo.

`COc1ccc2c(c1)C(c1ccc(C#CCNO)cc1)=N[C@@H](CC(=O)OC(C)(C)C)c1nnc(C)n1-2` [Compound 9130]: the IC50 in the assay on 22RV1 (22Rv1, 72 h) is less than 50 nM; with LNCaP it was less than 50 nM. For the same molecule, the “BRD4 degradation of 22RV1 (200 nM 5 h)” value on BRD4 [1] is reported as “B (20%<B<50%)”. The “BRD4 degradation of LNCap (200 nM 5 h)” value at BRD4 [2] was “A (A<20%)”.
As to `COc1ccc2c(c1)C(c1ccc(/C=C/CN)cc1)=N[C@@H](CC(=O)OC(C)(C)C)c1nnc(C)n1-2` [Compound 9131], the IC50 in the assay on 22RV1 (22Rv1, 72 h) is 50 to 200 nM; with LNCaP, less than 50 nM. Also, at BRD4 [1], the “BRD4 degradation of 22RV1 (200 nM 5 h)” value is “B (20%<B<50%)”. In addition, the “BRD4 degradation of LNCap (200 nM 5 h)” value on BRD4 [2] was “A (A<20%)”.
As to `Cc1sc2c(c1C)C(c1ccc(/C=C/C=N\O)cc1)=N[C@@H](CC(=O)OC(C)(C)C)c1nnc(C)n1-2` [Compound 9132-B], the concentration for half-maximal inhibition (IC50) in the assay with 22RV1 (setting [3]) and in the assay with LNCaP was 50 to 200 nM throughout. The “BRD4 degradation of 22RV1 (200 nM 5 h)” value at BRD4 [1] is “D (80%<D<100%)”.
On to `Cc1sc2c(c1C)C(c1ccc(C#CCN)cc1)=N[C@@H](Cc1nccs1)c1nnc(C)n1-2` [Compound 9135], for which the IC50 in the assay on 22RV1 (22Rv1, 72 h) is 50 to 200 nM; with LNCaP it was less than 50 nM. In addition, the “BRD4 degradation of 22RV1 (200 nM 5 h)” value at BRD4 [1] is reported as “B (20%<B<50%)”.
The matching figures for `Cc1sc2c(c1C)C(c1ccc(/C=C/CN)cc1)=N[C@@H](Cc1nccs1)c1nnc(C)n1-2` [Compound 9136]: less than 50 nM, less than 50 nM and “C (50%<C<80)”.
On to `Cc1sc2c(c1C)C(c1ccc(/C=C/CN)cc1)=N[C@@H](CC(=O)OC1(C)CC1)c1nnc(C)n1-2` [Compound 9137], for which the IC50 in the assay on 22RV1 (setting [3]) and in the assay with LNCaP was less than 50 nM each time. Also, the “BRD4 degradation of 22RV1 (200 nM 5 h)” value at BRD4 [1] was “B (20%<B<50%)”.
As for `COc1ccc2c(c1)C(c1ccc(C#CCN)cc1)=N[C@@H](Cc1nccs1)c1nnc(C)n1-2` [Compound 9139], the IC50 in the assay on 22RV1 (22Rv1, 72 h) is 50 to 200 nM; in the assay on LNCaP it was less than 50 nM. In addition, the “BRD4 degradation of 22RV1 (200 nM 5 h)” value on BRD4 [1] is recorded as “B (20%<B<50%)”. Also, the “BRD4 degradation of LNCap (200 nM 5 h)” value at BRD4 [2] was “A (A<20%)”.
The like results for `COc1ccc2c(c1)C(c1ccc(/C=C/CN)cc1)=N[C@@H](Cc1nccs1)c1nnc(C)n1-2` [Compound 9140] were, in that order, greater than 500 nM, 50 to 200 nM, “B (20%<B<50%)” and “B (20%<B<50%)”.
The matching figures for `COc1ccc2c(c1)C(c1ccc(/C=C/CNOC(C)=O)cc1)=N[C@@H](CC(=O)OC(C)(C)C)c1nnc(C)n1-2` [Compound 9146]: less than 50 nM, less than 50 nM, “A (A<20%)” and “A (A<20%)”.
`Cc1sc2c(c1C)C(c1ccc(C3CC3/C=N/O)cc1)=N[C@@H](CC(=O)OC(C)(C)C)c1nnc(C)n1-2` (stereo partly shown) [Compound 9148]: the concentration for half-maximal inhibition (IC50) in the assay on 22RV1 (setting [3]) and with LNCaP was 50 to 200 nM in each case. The “BRD4 degradation of 22RV1 (200 nM 5 h)” value on BRD4 [1] was “C (50%<C<80)”.
For the molecule `Cc1sc2c(c1C)C(c1ccc(C#CCN)cc1)=N[C@@H](Cc1nnc(C(C)C)o1)c1nnc(C)n1-2` [Compound 9160], the IC50 with 22RV1 (22Rv1, 72 h) is less than 50 nM; in the assay on LNCaP, less than 50 nM. Moreover, the “BRD4 degradation of 22RV1 (200 nM 5 h)” value at BRD4 [1] is given as “C (50%<C<80)”.
As for `Cc1sc2c(c1C)C(c1ccc(/C=C/CNO)cc1)=N[C@@H](Cc1nccs1)c1nnc(C)n1-2` [Compound 9166], the IC50 in the assay on 22RV1 (setting [3]) and in the assay with LNCaP was less than 50 nM throughout. Also, the “BRD4 degradation of 22RV1 (200 nM 5 h)” value at BRD4 [1] is given as “A (A<20%)”.
Regarding `COc1ccc2c(c1)C(c1ccc(/C=C/CNO)cc1)=N[C@@H](Cc1nccs1)c1nnc(C)n1-2.Cl` [Compound 9167], the IC50 was less than 50 nM in the assay with 22RV1 (22Rv1, 72 h) and less than 50 nM in the assay with LNCaP. Besides, the “BRD4 degradation of LNCap (200 nM 5 h)” value on BRD4 [2] is given as “A (A<20%)”.
In the case of `Cc1sc2c(c1C)C(c1ccc(C#CCNO)cc1)=N[C@@H](Cc1nccs1)c1nnc(C)n1-2.Cl` [Compound 9173], the IC50 in the assay with 22RV1 (setting [3]) and in the assay with LNCaP was less than 50 nM each time. At BRD4 [1], the “BRD4 degradation of 22RV1 (200 nM 5 h)” value is on record as “C (50%<C<80)”.
Take `COc1ccc2c(c1)C(c1ccc(C#CCNO)cc1)=N[C@@H](Cc1nccs1)c1nnc(C)n1-2.Cl` [Compound 9174]: the IC50 was in the range of 200 to 500 nM with 22RV1 (22Rv1, 72 h) and 50 to 200 nM in the assay on LNCaP. Moreover, the “BRD4 degradation of 22RV1 (200 nM 5 h)” value on BRD4 [1] is given as “C (50%<C<80)”. The “BRD4 degradation of LNCap (200 nM 5 h)” value at BRD4 [2] is recorded as “B (20%<B<50%)”.
`Cc1sc2c(c1C)C(c1ccc(/C=C/CNO)cc1)=N[C@@H](CC(=O)OC1(C)CC1)c1nnc(C)n1-2` [Compound 9184]: the IC50 with 22RV1 (setting [3]) and in the assay with LNCaP was less than 50 nM each time. Besides, the “BRD4 degradation of 22RV1 (200 nM 5 h)” value at BRD4 [1] is “A (A<20%)”.
`COc1ccc2c(c1)C(c1ccc(/C=C/CNO)cc1)=N[C@@H](CC(=O)OC1(C)CC1)c1nnc(C)n1-2` [Compound 9185]: the IC50 in the assay on 22RV1 (22Rv1, 72 h) was less than 50 nM; in the assay with LNCaP, less than 50 nM. At BRD4 [1], the “BRD4 degradation of 22RV1 (200 nM 5 h)” value was “B (20%<B<50%)”. Moreover, on BRD4 [2], the “BRD4 degradation of LNCap (200 nM 5 h)” value is reported as “A (A<20%)”.
